The record followed here is paper PMC5712521, “Dendrogenin A drives LXR to trigger lethal autophagy in cancers” (Nature Communications, 2017).

Where a SMILES comes first, the peptide text is derived from it. The star is where a group is joined. Cbz = O=C(OCc1ccccc1)*; CH2F = FC*

For series [1], the target named is T1, human liver-X-receptor LXRα (Homo sapiens, UniProt Q13133).
T1 construct: expressed in transfected cells; host or cells: HEK293T
T1 sequence (Q13133 1-447): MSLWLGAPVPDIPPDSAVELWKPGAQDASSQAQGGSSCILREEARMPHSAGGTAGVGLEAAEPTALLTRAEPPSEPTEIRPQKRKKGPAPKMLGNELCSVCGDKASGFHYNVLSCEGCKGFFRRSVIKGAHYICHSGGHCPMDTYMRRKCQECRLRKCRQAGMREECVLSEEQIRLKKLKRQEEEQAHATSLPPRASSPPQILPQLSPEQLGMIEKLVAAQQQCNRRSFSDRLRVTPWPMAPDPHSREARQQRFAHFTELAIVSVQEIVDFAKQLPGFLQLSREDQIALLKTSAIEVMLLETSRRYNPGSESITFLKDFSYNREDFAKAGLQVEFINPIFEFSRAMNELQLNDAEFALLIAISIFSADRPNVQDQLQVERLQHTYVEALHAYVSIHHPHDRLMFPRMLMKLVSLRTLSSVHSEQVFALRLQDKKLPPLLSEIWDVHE
T1 sequence (P48443 1-463 partner): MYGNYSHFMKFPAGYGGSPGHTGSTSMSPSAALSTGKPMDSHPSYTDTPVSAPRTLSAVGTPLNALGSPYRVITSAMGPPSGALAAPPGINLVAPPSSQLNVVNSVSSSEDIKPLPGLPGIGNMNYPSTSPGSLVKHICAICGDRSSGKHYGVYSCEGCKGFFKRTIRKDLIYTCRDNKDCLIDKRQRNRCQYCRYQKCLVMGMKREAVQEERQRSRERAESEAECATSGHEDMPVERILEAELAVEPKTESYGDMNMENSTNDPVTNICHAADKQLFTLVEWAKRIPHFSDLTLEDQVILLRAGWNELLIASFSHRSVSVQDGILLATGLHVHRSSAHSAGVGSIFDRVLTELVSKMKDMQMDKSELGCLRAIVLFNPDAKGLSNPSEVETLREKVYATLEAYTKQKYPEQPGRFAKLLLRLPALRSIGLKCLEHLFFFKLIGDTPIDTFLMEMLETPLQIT
As to the kind of experiment: LXRE-luciferase gene reporter assay in HEK293T, LXRα. Type of series: cell-based. The following applies: DDA analogs. From the text: (§1) HEK293T were used for luciferase assays. Cells were transfected using the PolyEthylenImine (PEI) method with human retinoid-X receptor (RXRγ) and human liver-X-receptors (LXRα or LXRβ) with LXRE-Luc; RXRγ and human farnesoid X receptor (FXR) with EcRE-Luc; RXRγ and human steroid and xenobiotic X receptor (SXR) with DR4-Luc; RXRγ and human peroxisome proliferator activated receptors (PPARα, or PPARγ) with PPRE-Luc; RXRγ and human retinoic acid receptor (RARα) with DR1-Luc; human AHR and human ARNT with a DRE-Luc; human vitamin D receptor (VDR) with VDRE-Luc. Cells were transfected with plasmids encoding human glucocorticoid receptor (GR), progesterone receptor (PR), or androgen receptor (AR) with MMTV-Luc; or estrogen receptors (ERα and ERβ) with an ERE-Luc. The day after transfection with the luciferase reporter gene construct, cells were seeded in 12-well plates (50,000 cells per well). After 6 h, cells were then treated with the following ligands dissolved in ethanol: 10 nM estradiol (E2) for ERα and ERβ; 10 nM R1881 for AR; 10 nM R5020 for PR; 10 nM dexamethasone for GR; 10 µM fenofibrate for PPARα; 100 nM rosiglitazone (BRL 49653) for PPARγ; 100 nM cis-retinoic acid (cRA) for RAR; 10 nM dioxine for AHR, 10 µM rifampicine for SXR and 10 µM 22(R) hydroxycholesterol (22(R)HC) for LXRα and LXRβ. At the end of each treatment, cells were lysed in 100 μl lysis buffer (Promega). Luciferase activity was measured using the luciferase assay reagent (Promega), according to the manufacturer’s instructions. Protein concentrations were measured using the Bradford method to normalize luciferase activities. For each condition, luciferase activity was calculated from the data of three independent wells.
Background: A reporter such as luciferase makes a cellular process visible.

The test system of series [2] is B16F10 cells. Put plainly: DDA-induced cytotoxicity (cell death). Type of series: cell-based. On the procedure: (§2) Melanoma cells were seeded into 6-well plates at 60,000 cells per well and AML cells at 250,000 cells/ml. The cells were then treated with control solvent vehicle (1/1000 ethanol in water) or DDA. Where indicated, treated cells were incubated in the presence or absence of each inhibitor for time shown. Cell death was determined by the trypan blue exclusion assay. Cells were scraped and resuspended in trypan blue solution (0.25% (w/v) in PBS) and counted in a Malassez cell under light microscopy. Cell viability was then quantified by counting viable (trypan blue-negative) and dead cells (trypan blue-positive).
(§3) Supplementary Fig. 1. a DDA inhibited m elanom a colony form ation. Melanom a cells were […]
(§4) a 0.5% solution of crystal violet in water and analyzed by microscopy. Images are representative of 5 independent experiments. b Evaluation of DDA-induced cytotoxicity (cytotox) and clonogenicity (clono) inhibition in a subset of human (H) and mouse (M) m elanom a cell lines. T he BRaf status in m elanom a cells lines is shown. […]

Series [3] relates to SKMEL-28 cells. As to the kind of experiment: DDA-induced cytotoxicity (cell death). Type of series: cell-based. On the procedure: as §2, §3, §4
For series [4], the system named is AML cells. Put plainly: Immunoblot of caspase-3 and PARP in AML cells. Type of series: cell-based, human. Particulars: 50 µM z-VAD-fmk alone (0 µM DDA), 24 h. On the procedure:
Immunoblotting was carried out as described previously. Proteins were separated on SDS-PAGE gels, electro-transferred onto polyvinylidene difluoride membranes and incubated overnight at 4 °C with the following antibodies: anti-Atg3, anti-Atg5 (D1G9), anti-Atg7 (D12B11), anti-Beclin (D40C5), anti-caspase-3 (Cell Signaling), anti-Bcl-2 (Millipore), anti-Bax (Millipore), anti-LC3 (Sigma-Aldrich), anti-LXRα (SantaCruz), anti-LXRβ (SantaCruz), anti-Nur77 (Active motif), anti-NOR1 (R&D systems), anti-PARP (Cell Signaling), anti-Vps34 (Cell Signaling), or anti-Actin (Millipore). For visualization, an ECL plus kit (Amersham Biosciences) was used, and chemiluminescence was measured by autoradiography (Supplementary Fig. 9). Specific bands were quantified with ImageQuant software.
Supplementary Fig. 6. […]
AML cells treated with DDA for 24 h in the absence or presence of 50 µM z- VAD-fmk (a
caspase inhibitor). j Effect of z-VAD-fmk on DDA-induced c ytotox icit y in KG1 and HL60 cells. […]
Images are
representative of 3 independent experim ents.

Series [5] concerns the target T2, human liver-X-receptor LXRβ (Homo sapiens, UniProt P55055).
T2 construct: expressed in transfected cells; host or cells: HEK293T
Put plainly: LXRE-luciferase gene reporter assay in HEK293T, LXRβ. Type of series: cell-based. The following applies: DDA analogs.
Excerpt: as §1, with “After 6 h, cells were then treated with the following ligands dissolved in ethanol: 10 nM estradiol (E2) for ERα and ERβ; 10 nM R1881 for AR; 10 nM R5020 for PR; 10 nM dexamethasone for GR; 10 µM fenofibrate for PPARα; 100 nM rosiglitazone (BRL 49653) for PPARγ; 100 nM cis-retinoic acid (cRA) for RAR; 10 nM dioxine for AHR, 10 µM rifampicine for SXR and 10 µM 22(R) hydroxycholesterol (22(R)HC) for LXRα and LXRβ. At the end of each treatment, cells were lysed in 100 μl lysis buffer (Promega).” left out

T2 sequence (P55055 whole entry, one chain of several): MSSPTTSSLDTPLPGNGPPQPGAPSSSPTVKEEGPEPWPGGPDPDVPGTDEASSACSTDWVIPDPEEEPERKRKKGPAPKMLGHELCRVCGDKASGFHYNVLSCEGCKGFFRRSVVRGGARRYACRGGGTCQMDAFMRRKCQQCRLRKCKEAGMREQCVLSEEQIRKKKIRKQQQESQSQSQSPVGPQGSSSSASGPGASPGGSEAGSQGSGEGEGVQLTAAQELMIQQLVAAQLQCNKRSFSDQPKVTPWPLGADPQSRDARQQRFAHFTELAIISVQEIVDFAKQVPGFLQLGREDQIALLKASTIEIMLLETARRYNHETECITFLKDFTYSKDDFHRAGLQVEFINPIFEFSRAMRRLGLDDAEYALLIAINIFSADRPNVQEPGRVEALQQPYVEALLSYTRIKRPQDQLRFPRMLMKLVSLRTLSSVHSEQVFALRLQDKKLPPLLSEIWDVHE

As to `CC(C)CCCC(C)C1CCC2C3CC(n4cncc4CCN)C4(O)CC(O)CCC4(C)C3CCC12C` (stereo not shown) [C17], in series [1], the “LXRα-dependent agonistic or antagonistic activity” value is “switch from antagonist to agonist activity”. Besides, the “cytotoxicity and clonogenicity inhibition” value in series [2] and in series [3] was “inactive” each time.

Turning to `COC(=O)C[C@H](NC(=O)[C@H](C)NC(=O)[C@@H](NC(=O)OCc1ccccc1)C(C)C)C(=O)CF` [z-VAD-fmk, reference compound] (Cbz-Val-Ala-Asp(OMe)-CH2F), in series [4], the “cleaved PARP, densitometry” value worked out at 0.6 and the “cleaved casp 3, densitometry” value worked out at 0.4.

Turning to `CC(C)CCCC(C)C1CCC2C3C[C@@H](NCCO)[C@@]4(O)C[C@@H](O)CC[C@]4(C)C3CC[C@]12C` (stereo partly shown) [C41], the “LXRα-dependent agonistic or antagonistic activity” value in series [1] is given as “switch from antagonist to agonist activity”. Further, in series [5], the “LXRβ-dependent agonistic or antagonistic activity” value was “antagonist-agonist switch”.
